In general, melting point refers to the temperature, or range, at which the solid turns liquid. As a reminder, the Ki is the equilibrium dissociation constant of an inhibitor or competing ligand from its target. A higher Ki goes with weaker binding. As a reminder, the Kd is the equilibrium constant for the complex coming apart.

The text below walks through data of patent US8017646B2, “Histamine H3-receptor ligands and their therapeutic application” (Bioprojet, priority 2005, dated 2011).

The target of one data set is CYP3A4 (Homo sapiens, UniProt P08684). Kind of data set: Cytochrome inhibition, fluorometric assay, CYP3A4. The note with it: human recombinant CYP3A4, substrate BFC; read-out: cytochrome inhibition (IC50, concentrations for 50% inhibition) CYP3A4. It counts as biochemical. The method, then:
(§1) The ability of drug in human to inhibit the catalytic activity of cytochrome P-450 isoforms was assayed using microtiter plate-based, fluorometric assays for the activities of the five human major CYP forms. Inhibition potential was determined in vitro after incubation of fluorescent model substrates over various incubation time with human recombinant cytochrome isoforms in the absence or in presence of increasing concentrations of test molecules (from 1 nM to 100 μM), in comparison with specific CYP isoform inhibitors. Data were expressed as quantitative inhibition parameters [inhibitor concentration that produces 50% inhibition (IC50 value)]. Incubation of drug was carried out at 37° C.±0.5° C. under agitation in the presence of human recombinant cytochrome P-450 isoforms and a NADPH generating system. The incubation conditions for each cytochrome isoform were as follow: [table]

The target of a further data set is CYP2D6 (Homo sapiens, UniProt P10635). Kind of data set: Cytochrome inhibition, fluorometric assay, CYP2D6. It counts as biochemical. As to the method: as §1, with “value)].” for “value)]. Incubation of drug was carried out at 37° C.±0.5° C. under agitation in the presence of human recombinant cytochrome P-450 isoforms and a NADPH generating system. The incubation conditions for each cytochrome isoform were as follow: [table]”
Chain of CYP2D6 (P10635 whole entry, canonical isoform): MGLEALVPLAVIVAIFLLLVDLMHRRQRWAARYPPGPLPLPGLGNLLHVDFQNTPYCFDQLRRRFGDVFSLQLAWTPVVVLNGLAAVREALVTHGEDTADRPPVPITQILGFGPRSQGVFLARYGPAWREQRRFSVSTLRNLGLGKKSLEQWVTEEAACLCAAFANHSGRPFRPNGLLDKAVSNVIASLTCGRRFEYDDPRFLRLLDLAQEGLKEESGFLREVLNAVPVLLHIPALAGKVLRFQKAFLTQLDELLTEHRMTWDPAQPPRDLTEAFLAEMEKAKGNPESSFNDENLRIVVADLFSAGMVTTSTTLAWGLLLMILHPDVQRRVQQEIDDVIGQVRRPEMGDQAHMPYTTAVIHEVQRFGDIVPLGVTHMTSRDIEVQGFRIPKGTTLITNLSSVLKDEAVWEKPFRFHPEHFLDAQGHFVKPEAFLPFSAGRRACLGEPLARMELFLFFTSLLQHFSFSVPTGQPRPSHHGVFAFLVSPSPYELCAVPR
Incubation of drug was carried out at 37° C.±0.5° C. under agitation in the presence of human recombinant cytochrome P-450 isoforms and a NADPH generating system. The incubation conditions for each cytochrome isoform were as follow: […]

Data set [1] deals with human histamine H3 receptors (Homo sapiens, UniProt Q9Y5N1). Kind of data set: H3 binding ([125I]iodoproxyfan displacement). The settings on record: for Ki: membranes expressing human histamine H3 receptors, [125I]iodoproxyfan. The method, then:
Membranes expressing human histamine H3 receptors were incubated 1 hour at room temperature in binding buffer containing 50 mM Na2HPO4/KH2PO4 pH 7.5 in a final volume of 200 μl. […] Amersham Pharmacia Biotech) concentrations ranged between 20 and 40 pM. Non-specific binding was determined in the presence of 1 μM Imetit. The reaction was stopped by rapid filtration through GF/B filters (pre-soaked for 2 hours with 0.3% polyethyleneimine) followed by 3 ice cold binding buffer washes. The filter-bound radioactivity was measured in a liquid scintillation counter with 50 μl of scintillation fluid.

Setting [2] is: human recombinant CYP2D6, substrate AMMC, read-out: cytochrome inhibition (IC50, concentrations for 50% inhibition) CYP2D6.

Structures are written as SMILES. Counter-ions that a name gives are not always drawn. Like-named read-outs stand apart in the source and are kept apart here. Bounds are passed on as bounds.

Chain of CYP3A4 (P08684 whole entry, canonical isoform): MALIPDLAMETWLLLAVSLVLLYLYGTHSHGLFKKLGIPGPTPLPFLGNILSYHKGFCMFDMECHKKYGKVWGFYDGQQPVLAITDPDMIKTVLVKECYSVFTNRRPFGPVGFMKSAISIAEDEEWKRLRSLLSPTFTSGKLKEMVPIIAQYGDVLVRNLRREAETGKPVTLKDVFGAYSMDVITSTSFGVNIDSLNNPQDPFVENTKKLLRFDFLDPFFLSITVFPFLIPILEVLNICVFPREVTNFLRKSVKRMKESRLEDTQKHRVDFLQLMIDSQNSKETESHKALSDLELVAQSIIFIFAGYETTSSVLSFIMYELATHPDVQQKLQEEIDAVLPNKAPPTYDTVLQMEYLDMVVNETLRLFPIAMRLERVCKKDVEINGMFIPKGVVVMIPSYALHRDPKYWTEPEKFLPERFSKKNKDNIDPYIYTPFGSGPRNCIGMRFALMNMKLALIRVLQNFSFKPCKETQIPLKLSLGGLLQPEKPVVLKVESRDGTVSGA
Chain of human histamine H3 receptors (Q9Y5N1 whole entry): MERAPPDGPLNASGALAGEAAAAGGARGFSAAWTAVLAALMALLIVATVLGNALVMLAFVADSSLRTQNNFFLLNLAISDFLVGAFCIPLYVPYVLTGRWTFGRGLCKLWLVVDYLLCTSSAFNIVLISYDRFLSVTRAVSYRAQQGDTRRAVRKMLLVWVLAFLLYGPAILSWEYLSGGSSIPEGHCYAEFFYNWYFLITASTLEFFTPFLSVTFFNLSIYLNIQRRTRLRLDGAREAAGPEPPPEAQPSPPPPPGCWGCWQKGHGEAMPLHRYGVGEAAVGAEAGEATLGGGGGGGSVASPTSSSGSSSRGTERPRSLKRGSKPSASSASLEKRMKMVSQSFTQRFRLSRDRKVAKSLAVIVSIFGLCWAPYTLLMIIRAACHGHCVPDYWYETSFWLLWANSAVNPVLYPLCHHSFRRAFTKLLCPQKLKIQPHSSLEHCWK

Take `COc1ccc(CCCOCCCN2CCCC2)cc1OC` [Example 1, 1-{3-[3-(3,4-dimethoxyphenyl)propoxy]propyl}pyrrolidine, oxalate]: the IC50 at CYP3A4 and on CYP2D6 (setting [2]) was more than 10 µM each time.

For `COc1ccc(/C=C/COCCCN2CCCCC2)cc1OC.O=C(O)C(=O)O` [Example 2, trans-1-{3-[3-(3,4-dimethoxyphenyl)allyloxy]propyl}piperidine, oxalate], the melting point was 111 to 112 °C. Besides, on CYP3A4, the IC50 was more than 10 µM. Besides, the IC50 at CYP2D6 (setting [2]) is more than 10 µM.

Consider `COc1ccc(CCCOCCCN2CCCCC2)cc1OC` [Example 3, 1-{3-[3-(3,4-dimethoxyphenyl)propoxy]propyl}piperidine, oxalate], for which the IC50 on CYP3A4 and on CYP2D6 (setting [2]) was more than 10 µM each time.

Take `Cc1ccc(CCCOCCCN2CCCCC2)cc1` [Example 4, 1-{3-[3-(4-methylphenyl)propoxy]propyl}piperidine, oxalate]: the IC50 at CYP3A4 and on CYP2D6 (setting [2]) was more than 10 µM each time.

For the compound `c1ccc2cc(CCCOCCCN3CCCCC3)ccc2c1` [Example 5, 1-{3-[3-(2-naphtyl)propoxy]propyl}piperidine, oxalate], the IC50 is more than 10 µM at CYP3A4 and more than 1 µM on CYP2D6 (setting [2]).

As to `COc1cc(CCCOCCCN2CCCCC2)ccc1O` [Example 6, 1-{3-[3-(4-hydroxy-3-methoxyphenyl)propoxy]propyl}piperidine, oxalate], the IC50 on CYP3A4 is more than 10 µM; at CYP2D6 (setting [2]) it was more than 1 µM.

The compound `Fc1ccc(CCCOCCCN2CCCC2)cc1.O=C(O)C(=O)O` [Example 7, 1-{3-[3-(4-fluorophenyl)propoxy]propyl}pyrrolidine, oxalate] registered a melting point of 106 °C. In addition, the IC50 at CYP3A4 is more than 100 µM. Further, the IC50 on CYP2D6 (setting [2]) came to 81 µM.

Consider `COc1cc(/C=C/COCCCN2CCCC2)ccc1F` [Example 8, trans-1-{3-[3-(4-fluoro-3-methoxyphenyl)allyloxy]propyl}pyrrolidine, oxalate], for which the results for the IC50 on CYP3A4 and at CYP2D6 (setting [2]) were more than 10 µM and more than 1 µM, respectively.

Turning to `COc1cc(CCCOCCCN2CCCC2)ccc1F` [Example 9, 1-{3-[3-(4-fluoro-3-methoxyphenyl)propoxy]propyl}pyrrolidine, oxalate], the IC50 on CYP3A4 and on CYP2D6 (setting [2]) was more than 100 µM each time. In data set [1], the Ki came to 0.0017 µM.

Regarding `Cc1cc(CCCOCCCN2CCCC2)ccc1F` [Example 10, 1-{3-[3-(4-fluoro-3-methylphenyl)propoxy]propyl}pyrrolidine, oxalate], the IC50 is more than 10 µM on CYP3A4 and more than 1 µM at CYP2D6 (setting [2]).

In the case of `COc1cc(F)ccc1CCCOCCCN1CCCC1` [Example 11, 1-{3-[3-(4-fluoro-2-methoxyphenyl)propoxy]propyl}pyrrolidine, oxalate], the results for the IC50 at CYP3A4 and at CYP2D6 (setting [2]) were 23 µM and 18 µM, respectively. In addition, in data set [1], the affinity corresponds to a Ki of 0.00038 µM.

Take `C(=C\c1ccc2occc2c1)/COCCCN1CCCC1` [Example 12, trans-1-{3-[3-(benzofuran-5-yl)allyloxy]propyl}pyrrolidine, oxalate]: the figures for the IC50 at CYP3A4 and on CYP2D6 (setting [2]) were more than 10 µM and more than 1 µM, respectively.

Regarding `C(=C\c1ccc2c(c1)OCCO2)/COCCCN1CCCCC1.O=C(O)C(=O)O` [Example 13, 1-{3-[3-(2,3-dihydrobenzo[1,4]dioxin-6-yl)allyl]oxy}propyl)piperidine, oxalate], the IC50 at CYP3A4 and at CYP2D6 (setting [2]) was more than 10 µM each time.

Compound `C(=C\c1ccc2c(c1)OCCO2)/COCCCN1CCCCC1.O=C(O)C(=O)O` [Example 13] had a melting point of 120 °C.

As for `C(=C\c1ccc2c(c1)OCO2)/COCCCN1CCCC1` [Example 14, trans-1-{3-[3-(benzodioxol-5-yl)allyloxy]propyl}pyrrolidine, oxalate], the IC50 at CYP3A4 came to 10.6 µM; at CYP2D6 (setting [2]), 4.4 µM. Moreover, the Ki in data set [1] amounted to 0.0047 µM.

Take `Ic1ccc(COCCCc2cnc[nH]2)cc1` [[^125]iodoproxyfan, reference compound]: in data set [1] (radioligand at human H3 receptor membranes, read-out: Kd (hH3 binding)), the dissociation constant Kd came to 0.078 ± 0.006 nM.

Consider `Clc1ccc(CCCOCCCN2CCCCC2)cc1` [reference compound], for which, at CYP2D6 (comparative compound disclosed in WO 00/06254, read-out: cytochrome inhibition (IC50) CYP2D6), the IC50 was found to be 0.059 µM.
